From ChEMBL document CHEMBL1201862, “PubChem BioAssay data set” (2004)
“And” between values parts separate entries of the source, which are not always exact repeats. Identical values can stand only once.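 Test compounds were applied to cells in 96-well plates for 48 hours at 5 doses. At the GI50, growth is halved.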 The source made the active and inactive calls. Cut-off read from the data, not from the text of the source: active = GI50 up to about 1.1 µM and inactive = higher.

Key:
Assay in all cases: DTP human tumour cell line panel, 48 h
[1] = test system: NCI-H226
[2] = test system: KM12
[3] = test system: CAKI-1
[4] = test system: TK-10
[5] = test system: HOP-62
[6] = test system: A498
[7] = test system: BT-549
[8] = test system: HCT-15
[9] = test system: NCI/ADR-RES
[10] = test system: PC-3
[11] = test system: 786-0
[12] = test system: LOX IMVI
[13] = test system: MDA-MB-435
[14] = test system: UACC-257
[15] = test system: Malme-3M
[16] = test system: OVCAR-3
[17] = test system: SK-OV-3
[18] = test system: UACC-62
[19] = test system: RPMI-8226

SMILES	GI50 [1]	GI50 [2]	GI50 [3]	GI50 [4]	GI50 [5]	GI50 [6]	GI50 [7]	GI50 [8]	GI50 [9]	GI50 [10]	GI50 [11]	GI50 [12]	GI50 [13]	GI50 [14]	GI50 [15]	GI50 [16]	GI50 [17]	GI50 [18]	GI50 [19]
COC(=O)C1(C(=O)OC)CC2=C(S(=O)(=O)c3ccccc3)C[C@@H](C#N)[C@H]2C1	> 100 µM (inactive)	> 100 µM (inactive)	> 100 µM (inactive)	> 100 µM (inactive)	> 100 µM (inactive)	> 100 µM (inactive)	71.8 µM (inactive)	37.9 µM	> 100 µM (inactive)	> 100 µM (inactive)	> 100 µM (inactive)	> 100 µM (inactive)	> 100 µM (inactive)	> 100 µM (inactive)	> 100 µM (inactive)	25.2 µM (inactive)	> 100 µM (inactive)		
CC(=O)Oc1ccc(-c2c(OC(C)=O)c(OC(C)=O)c(-c3ccc(OC(C)=O)c(OC(C)=O)c3)c(OC(C)=O)c2OC(C)=O)cc1	17.9 µM (inactive)	14.4 µM (inactive)	21.3 µM (inactive)	15.9 µM (inactive)		20.1 µM (inactive)		17.1 µM	39.7 µM (inactive)	15.9 µM (inactive)	16.1 µM (inactive)	16.1 µM (inactive)	16.9 µM (inactive)	15.1 µM (inactive)	16.1 µM (inactive)	15.7 µM (inactive)	22.3 µM (inactive)	17.8 µM (inactive)	16.3 µM (inactive)
FC(F)(F)c1ccc2nc(Sc3ccc4ccccc4c3)cnc2c1	87.9 µM (inactive)	> 100 µM (inactive)	50.2 µM (inactive)	> 100 µM (inactive)	74.8 µM (inactive)	28.6 µM (inactive)	> 100 µM (inactive)	44.7 µM	60 µM (inactive)		40.5 µM (inactive)	44.1 µM (inactive)	55.2 µM (inactive)	43.8 µM (inactive)	> 100 µM (inactive)		> 100 µM (inactive)	64.9 µM (inactive)	
CC(=O)Oc1ccc2cc(Oc3cc(Cl)c(Cl)cc3Cl)c(=O)oc2c1	16.9 µM (inactive)	13 µM (inactive)	18 µM (inactive)	24.8 µM (inactive)	17.3 µM (inactive)	17.7 µM (inactive)	13.1 µM (inactive)	13.1 µM		16.1 µM (inactive)	15.6 µM (inactive)	15.4 µM (inactive)		20.6 µM (inactive)	15.3 µM (inactive)	16 µM (inactive)			
N[C@H](CCC(=O)NCP(=O)(O)O)C(=O)O		> 100 µM (inactive)		10.5 µM (inactive)	> 100 µM (inactive)	> 100 µM (inactive)	> 100 µM (inactive)	> 100 µM	> 100 µM (inactive)	> 100 µM (inactive)	> 100 µM (inactive)		> 100 µM (inactive)	> 100 µM (inactive)	> 100 µM (inactive)	> 100 µM (inactive)		> 100 µM (inactive)	> 100 µM (inactive)
CC(=O)c1cccc(NC2C(N)C(NC(=O)N(C)C)(C(C)O)C(C)(O)C2(O)COC(=O)c2c(C)cccc2O)c1 (stereo unspecified)	< 0.001 µM (active)	< 0.001 µM (active)	< 0.001 µM (active)	< 0.001 µM (active)	< 0.001 µM (active)	< 0.001 µM (active)	< 0.001 µM (active)	0.00296 µM	0.0134 µM (active)		< 0.001 µM (active)		< 0.001 µM (active)	0.00113 µM (active)	< 0.001 µM (active)	0.01 µM (active)	< 0.001 µM (active)	0.01 µM (active)	< 0.001 µM (active)
O=C1/C(=C/c2cccc([N+](=O)[O-])c2)Cc2ccccc21	> 100 µM (inactive)	86.5 µM (inactive)	> 100 µM (inactive)	> 100 µM (inactive)	> 100 µM (inactive)		> 100 µM (inactive)	72.8 µM	> 100 µM (inactive)	> 100 µM (inactive)	> 100 µM (inactive)	> 100 µM (inactive)	> 100 µM (inactive)	> 100 µM (inactive)	> 100 µM (inactive)	> 100 µM (inactive)	> 100 µM (inactive)	> 100 µM (inactive)	> 100 µM (inactive)
CC[n+]1[b-](C(C)(C)C)n(/N=C/C(C)(C)C)[b-](C(C)(C)C)[n+]1CC	> 100 µM (inactive)	> 100 µM (inactive)	> 100 µM (inactive)	> 100 µM (inactive)	> 100 µM (inactive)		> 100 µM (inactive)	> 100 µM	> 100 µM (inactive)	> 100 µM (inactive)	> 100 µM (inactive)	> 100 µM (inactive)	> 100 µM (inactive)	> 100 µM (inactive)	> 100 µM (inactive)	> 100 µM (inactive)		> 100 µM (inactive)	
C/C(=N\NC(=S)N1CCCCCCCCCCCC1)c1ccccn1	0.199 µM (active)	0.102 µM (active)	0.246 µM (active)	0.166 µM (active)	0.132 µM (active)	0.372 µM (active)	0.0991 µM (active)	0.216 µM	0.778 µM (active)	0.107 µM (active)	0.173 µM (active)	0.135 µM (active)	0.15 µM (active)	0.0689 µM (active)	0.281 µM (active)	0.0346 µM (active)			
CCCCC(C)(C/C=C/[C@@H]1[C@@H](C(O)CCCCCC(=O)OC)C(=O)C[C@H]1O[Si](C)(C)C(C)(C)C)O[Si](C)(C)C (stereo partly specified)	> 100 µM (inactive)	58.3 µM (inactive)	38.4 µM (inactive)	97.7 µM (inactive)	> 100 µM (inactive)		> 100 µM (inactive)	76.2 µM	> 100 µM (inactive)	34.9 µM (inactive)	> 100 µM (inactive)	45.3 µM (inactive)	74.3 µM (inactive)	62.1 µM (inactive)	> 100 µM (inactive)	91 µM (inactive)	> 100 µM (inactive)	91.8 µM (inactive)	31.2 µM (inactive)
COC(=O)CCCc1ccc2c(c1)CCC2	> 100 µM (inactive)	> 100 µM (inactive)	> 100 µM (inactive)	> 100 µM (inactive)	> 100 µM (inactive)		> 100 µM (inactive)	> 100 µM	> 100 µM (inactive)	> 100 µM (inactive)	> 100 µM (inactive)	> 100 µM (inactive)	> 100 µM (inactive)	> 100 µM (inactive)	> 100 µM (inactive)	> 100 µM (inactive)	> 100 µM (inactive)	> 100 µM (inactive)	> 100 µM (inactive)
COC(=O)[C@]1(C)CCC[C@@]2(C)C1CC[C@@]13C=C(C(C)C)[C@@H](CC1=O)CC23 (stereo partly specified)	21.1 µM (inactive)	34.5 µM (inactive)	34.2 µM (inactive)	43.8 µM (inactive)	30.6 µM (inactive)		23 µM (inactive)	21.1 µM	23 µM (inactive)	21.6 µM (inactive)	25.9 µM (inactive)		35.6 µM (inactive)	21.5 µM (inactive)		21.4 µM (inactive)	46.3 µM (inactive)	28.6 µM (inactive)	18.5 µM (inactive)
COc1cc(/C=C2/C[C@H]3[C@@H]4CC=C5C[C@@H](OC(C)=O)CC[C@]5(C)[C@H]4CC[C@]3(C)NC2=O)cc(OC)c1OC		47.4 µM (inactive)	29.5 µM (inactive)	26.5 µM (inactive)	26.6 µM (inactive)		22.5 µM (inactive)	32.7 µM	20 µM (inactive)	19 µM (inactive)	17.9 µM (inactive)	38.7 µM (inactive)	36.3 µM (inactive)	26.5 µM (inactive)	25.6 µM (inactive)	31.3 µM (inactive)	25.3 µM (inactive)	19.8 µM (inactive)	
CC(=O)OCc1ccc2oc(=O)c(C(=O)Oc3cccc(Cl)c3)cc2c1	> 100 µM (inactive)	61.5 µM (inactive)	42.9 µM (inactive)	31.5 µM (inactive)	99.1 µM (inactive)		> 100 µM (inactive)	35.5 µM	> 100 µM (inactive)	19.1 µM (inactive)	36.1 µM (inactive)	> 100 µM (inactive)	64.4 µM (inactive)	62.7 µM (inactive)	> 100 µM (inactive)	> 100 µM (inactive)	> 100 µM (inactive)	17.4 µM (inactive)	> 100 µM (inactive)
Clc1ncnc2c1nc(C#Cc1ccccc1)n2Cc1ccccc1	45.3 µM (inactive)	23.6 µM (inactive)	18.2 µM (inactive)	> 100 µM (inactive)	24.7 µM (inactive)	> 100 µM (inactive)	20.8 µM (inactive)	4.81 µM	60 µM (inactive)	40.6 µM (inactive)	13.7 µM (inactive)	11.2 µM (inactive)	11.9 µM (inactive)	25.8 µM (inactive)	> 100 µM (inactive)	3.99 µM (inactive)	> 100 µM (inactive)	30.5 µM (inactive)	
O=[N+]([O-])/C(C(Cl)=C(Cl)Cl)=C1/OCCS1	30.2 µM (inactive)	31.9 µM (inactive)	29.6 µM (inactive)	25.9 µM (inactive)	20.8 µM (inactive)	20.3 µM (inactive)		21.3 µM	17.1 µM (inactive)	35.9 µM (inactive)	23 µM (inactive)	21.4 µM (inactive)	22.6 µM (inactive)	27.7 µM (inactive)	17.7 µM (inactive)	14.4 µM (inactive)	48.6 µM (inactive)	25.5 µM (inactive)	22.9 µM (inactive)
COc1ccc(/C=C2/N/C(=N\N=C/C(O)C(O)C(O)CO)NC2=O)cc1 (stereo unspecified)	87.7 µM (inactive)		> 100 µM (inactive)	> 100 µM (inactive)			55.8 µM (inactive) and 28 µM (inactive)	> 100 µM	> 100 µM (inactive)		> 100 µM (inactive) and 62.4 µM (inactive)	> 100 µM (inactive)	> 100 µM (inactive) and 74.1 µM (inactive)	> 100 µM (inactive)	> 100 µM (inactive)		73.6 µM (inactive)		> 100 µM (inactive)
